Measurements: patent US10328062B2, “Biomarkers and use of MET inhibitor for treatment of cancer” (AMGEN, INC., priority 2014, dated 2019)

Experiments:
[1] = Phase 1 Study 20101132 safety; assay type: in vivo
Description: Eligible subjects have disease that is refractory or resistant to standard treatments or disease for which no standard therapy exists.
Safety is assessed according to Common Terminology Criteria for Adverse Events (CTCAE) v4.0 criteria and the DLT (dose limiting toxicity) window is 28 days. Dose escalation is proceeding with a modified 3+3+3 design, which defines the MTD (maximum tolerated dose) to have been exceeded when ≥3 subjects in a cohort experience a DLT.
Enrollment is proceeding as follows: if no DLT is observed within the first 28 days in the initial 3 to 4 subjects of a cohort, dose escalation to the next higher dose level cohort will occur. If 1 DLT is observed, 3 additional subjects will be enrolled at the same dose level for a total of at least 6 subjects. If no further DLT(s) are observed, escalation to the next higher dose level cohort will occur. If a second DLT is observed, 3 additional subjects will be enrolled at the same dose level for a total of at least 9 subjects. If no further DLTs are observed, dose escalation to the next higher dose level will occur. If ≥3 DLTs are observed in the first 3 to 9 subjects, then enrolment stops at the third DLT observation and enrolment into a cohort at a lower dose level will be considered.
Dose escalation consists of up to 8 cohorts of 3 to 9 evaluable subjects each. Initially, up to 4 subjects may enroll into a cohort. The planned cohort dose levels are as follows: QD cohorts, cohort 1, 25 mg; cohort 2, 50 mg; cohort 3, 100 mg; cohort 3A, 150 mg; cohort 4, 200 mg; cohort 5, 300 mg; cohort 6, 400 mg; and cohort 7, 500 mg; BID cohorts, cohort B1 100 mg, cohort B2 150 mg, cohort B3 200 mg. The MTD is defined as the highest dose level with an observed incidence of DLT in <33% of subjects enrolled in a cohort. At least 6 subjects will be treated at the MTD. An expansion cohort of up to 20 subjects at the MTD (determined in the dose escalation portion) will be considered to obtain further safety, PK, and efficacy data.
The 300-mg dose was identified as an MTD for QD dosing schedule and the recommended phase 2 dose. Twice daily dose escalation is currently ongoing and the MTD has not yet been determined as of the data cutoff date. As of the data cutoff date of 23 Jul. 2014, tumor-response data were available from 84 subjects in Study 20101132, including data on 62 subjects with >1 post-screening Response Evaluation Criteria in Solid Tumors (RECIST) tumor measurement by central read (22 subjects had screening data only). […] Of these 7 responders, 6 had gastric, gastroesophageal junction (GEJ) or esophageal adenocarcinoma with evidence of MET amplification identified by fluorescence in-situ hybridization assay performed by an experienced local laboratory per regulatory guideline.

[2] = system: SNU-5 cells; experiment: Immunoblot analysis of apoptotic markers; assay type: cell-based, Human; conditions: 30 nM, 24 hours
Description: (§1) Cells were seeded in 10 cm dishes at varying densities and allowed to adhere by incubating at 37° C. and 5% CO2 overnight. […] Cells were harvested in 250 μL lysis buffer containing protease and phosphatase inhibitors. For suspension cell lines, cells were pelleted prior to lysis buffer addition. Protein concentrations for individual lysates were measured using a BCA protein assay. 25 μg of protein lysate per sample was resolved on Life Technologies (Carlsbad, Calif.) NuPAGE Bis-Tris gels per manufacturer's. Samples were transferred to nitrocellulose membranes for Western blot analysis. Membranes were blocked in 5% milk prepared in TBST for 1 hour at room temperature. Total and phospho-specific antibodies for specified endpoints were used at 1:1000 dilutions in 5% milk/TBST (total) or 5% BSA/TBST (phospho). Membranes were incubated in the presence of appropriate primary antibody overnight at 4° C. Secondary anti-species-IgG HRP conjugated antibodies were diluted 1:5000 in 5% milk/TBST and incubated in the presence of membranes for 1 hour at room temperature. Membranes were exposed to Thermo Scientific (Waltham, Mass.) Super Signal PICO West ECL detection reagent per manufacturer's recommended protocol and exposed to film to document signal.
(§2) Antibodies detecting total and phospho-MET (Y1234/1235), phospho-Gab1 (Y627), total and phospho-AKT (S473), total and phospho-ERK (T202/Y204), cleaved caspase-3, and cleaved PARP were purchased from Cell Signaling Technologies (Beverly, Mass.). The total β-actin antibody was purchased from Thermo Scientific (Waltham, Mass.). Both secondary anti-rabbit and anti-mouse IgG-HRP conjugated antibodies were purchased from Thermo Scientific (Waltham, Mass.).
(§3) Flow cytometry cell cycle analysis of MET amplified gastric cancer cell line MKN-45 is represented in FIG. 6. […] BrdU labeling was performed during the final 2 hours of compound treatment. […] Cells were then analyzed by flow cytometry to document effects on the cell cycle. […] Subsequent lysates were analyzed by SDS-PAGE and immunoblot using antibodies detecting cleaved PARP, cleaved caspase-3 and β-actin.

[3] = system: MKN-45 cells; experiment: Immunoblot analysis of apoptotic markers; assay type: cell-based, Human; conditions: 30 nM, 24 hours
Description: as §1, §2, §3

[4] = system: SNU-620 cells; experiment: Immunoblot analysis of apoptotic markers; assay type: cell-based, Human; conditions: 30 nM, 24 hours
Description: as §1, §2, §3

COCCOc1cnc2ccn([C@H](C)c3nnc4c(F)cc(-c5cnn(C)c5)cn34)c(=O)c2c1 [Compound M, 6-{(1R)-1-[8-fluoro-6-(1-methyl-1H-pyrazol-4-yl)[1,2,4]triazolo[4,3-a]pyridin-3-yl]ethyl}-3-(2-methoxyethoxy)-1,6-naphthyridin-5(6H)-one]
MTD and recommended phase 2 dose ([1]; QD dosing schedule): 300 mg | adverse event: anemia ([1]; human, in vivo): 21.1% | adverse event: aspartate aminotransferase (AST) increased ([1]; human, in vivo): 10% | adverse event: back pain ([1]; human, in vivo): 15.6% | adverse event: constipation ([1]; human, in vivo): 23.3% | adverse event: decreased appetite ([1]; human, in vivo): 16.7% | adverse event: diarrhea ([1]; human, in vivo): 15.6% | adverse event: dizziness ([1]; human, in vivo): 10% | adverse event: dry skin ([1]; human, in vivo): 12.2% | adverse event: dyspnea ([1]; human, in vivo): 15.6% | adverse event: fatigue ([1]; human, in vivo): 40% | adverse event: headache ([1]; human, in vivo): 64.4% | adverse event: hypoalbuminemia ([1]; human, in vivo): 20% | adverse event: myalgia ([1]; human, in vivo): 12.2% | adverse event: nausea ([1]; human, in vivo): 43.3% | adverse event: peripheral edema ([1]; human, in vivo): 18.9% | adverse event: rash ([1]; human, in vivo): 11.1% | adverse event: vomiting ([1]; human, in vivo): 26.7% | cleaved PARP and cleaved caspase-3 levels [2]: clear induction of both cleaved PARP and cleaved caspase-3 | cleaved PARP and cleaved caspase-3 levels [3]: No induction of cleaved PARP or cleaved caspase-3 | cleaved PARP and cleaved caspase-3 levels [4]: elevated cleaved PARP and cleaved caspase-3 levels
